This is an account of results in US6921840B1 (The Trustees of the University of Pennsylvania, priority 1999, dated 2005).

What is called Ki is the dissociation constant of the complex between target and ligand, obtained from inhibition or displacement. In general, Kd refers to a measure of binding affinity in units of concentration.

Series [1] addresses T1, serotonin transporter (SERT) expressed in LLC-PK1 cells (Rattus norvegicus, UniProt P31652).
T1 construct: host or cells: LLC-PK1 (LLC-SERT)
Nature of the series: [125I]IPT competition binding, LLC-SERT membrane homogenates. The text has this: (§1) Three monoamine transporters expressed respectively in a common parental cell line, LLC-PK, (referred to as LLC-DAT. LLC-NET and LLC-SERT) were kindly provided by Dr. G. Rudnick of Yale University.

The target in series [2] is T2, norepinephrine transporter (NET) expressed in LLC-PK1 cells (Homo sapiens, UniProt P23975).
T2 construct: host or cells: LLC-PK1 (LLC-NET)
T2 sequence (P23975 whole entry): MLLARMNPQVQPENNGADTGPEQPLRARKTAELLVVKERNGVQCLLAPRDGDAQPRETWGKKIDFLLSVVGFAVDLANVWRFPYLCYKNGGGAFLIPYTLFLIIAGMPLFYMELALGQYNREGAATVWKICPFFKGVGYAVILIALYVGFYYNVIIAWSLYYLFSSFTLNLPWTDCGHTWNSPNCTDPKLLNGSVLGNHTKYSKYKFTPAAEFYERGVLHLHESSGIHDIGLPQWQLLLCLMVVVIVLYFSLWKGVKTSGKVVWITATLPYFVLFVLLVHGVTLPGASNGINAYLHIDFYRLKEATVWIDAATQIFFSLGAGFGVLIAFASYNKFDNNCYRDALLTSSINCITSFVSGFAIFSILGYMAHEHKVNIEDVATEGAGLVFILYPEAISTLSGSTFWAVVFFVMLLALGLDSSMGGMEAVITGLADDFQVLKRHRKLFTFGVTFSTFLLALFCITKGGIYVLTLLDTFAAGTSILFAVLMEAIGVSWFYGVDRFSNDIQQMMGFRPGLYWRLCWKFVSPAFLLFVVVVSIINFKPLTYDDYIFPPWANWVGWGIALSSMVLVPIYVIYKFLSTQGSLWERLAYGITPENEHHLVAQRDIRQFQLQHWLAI
Nature of the series: [125I]IPT competition binding, LLC-NET membrane homogenates.
Source text: as §1

For series [3], the target named is T3, dopamine transporter (DAT) expressed in LLC-PK1 cells (Rattus norvegicus, UniProt P23977).
T3 construct: host or cells: LLC-PK1 (LLC-DAT)
T3 sequence (P23977 whole entry): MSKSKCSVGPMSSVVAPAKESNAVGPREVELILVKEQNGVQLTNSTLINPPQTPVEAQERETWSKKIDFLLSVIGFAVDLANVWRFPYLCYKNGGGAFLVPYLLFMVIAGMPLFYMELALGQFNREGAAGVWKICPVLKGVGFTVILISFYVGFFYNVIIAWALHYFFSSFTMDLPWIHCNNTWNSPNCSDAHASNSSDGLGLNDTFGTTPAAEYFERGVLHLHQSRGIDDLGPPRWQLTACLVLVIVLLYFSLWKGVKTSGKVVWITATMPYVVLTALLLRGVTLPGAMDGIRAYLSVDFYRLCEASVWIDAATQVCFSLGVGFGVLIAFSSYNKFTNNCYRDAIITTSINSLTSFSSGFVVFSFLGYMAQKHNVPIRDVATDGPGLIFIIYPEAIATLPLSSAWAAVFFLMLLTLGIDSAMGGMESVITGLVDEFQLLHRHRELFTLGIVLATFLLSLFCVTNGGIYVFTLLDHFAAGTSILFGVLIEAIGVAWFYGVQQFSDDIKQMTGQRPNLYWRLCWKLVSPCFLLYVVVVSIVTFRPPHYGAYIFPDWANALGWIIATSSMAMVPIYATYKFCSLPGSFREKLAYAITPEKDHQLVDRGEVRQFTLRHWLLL
Briefly: [125I]IPT competition binding, LLC-DAT membrane homogenates.
Source text: as §1

Series [4] is described as follows: Biodistribution in rats after i.v. injection of radioactive tracer. It is filed as in vivo, rat. The protocol:
Three or four rats per group were used for each biodistribution study. While under ether anesthesia, 0.2 ml of a saline solution containing 10 μCi of radioactive tracer was injected into the femoral vein. The rats were sacrificed at the time indicated by cardiac excision while under ether anesthesia. Organs of interest were removed and weighed, and the radioactivity was counted using a Packard automatic gamma counter (Model 5000). The percent dose per organ was calculated by a comparison of the tissue counts to counts of 1% of the initial dose (100 times diluted aliquots of the injected material) measured at the same time.
Regional brain distribution in rats was measured after an i.v. injection of the radioactive tracer. Samples from different brain regions [cortex (CX), striatum (ST), hippocampus (HP), cerebellum (CB) and hypothalamus (HY)] were dissected, weighed and counted. The percentage dose/g of each sample was calculated by comparing sample counts with the counts of the diluted initial dose described above. The ratio of specific binding (SB) in each region was obtained by dividing the difference of each region from the cerebellum (percentage dose/g) with that of the cerebellum [(region-CB)/CB].

In series [5] the target is T4, SERT (Rattus norvegicus, UniProt P31652). Nature of the series: Competition binding with [125I]IDAM in rat frontal cortical homogenate. Details: The frontal cortex of rat brain were dissected and homogenized in 30 volumes of buffer; from tissue; host or cells: rat frontal cortex membrane homogenates (male Sprague-Dawley rats, control and PCA-lesioned). The protocol:
The homogenates were centrifuged at 20,000 g for 20 min. The resulting pellets were then re-suspended and recentrifuged. The final pellets were suspended in the same buffer and used for in vitro binding assays.
Various inhibitors were serially diluted with the buffer containing 0.1% BSA to overcome the stickiness and loss due to dilution. […] Incubation was carried out for 60 min at room temperature and then terminated by separation of bound from free radioligand by filtration through glass fiber filters (Schleicher & Schuell No. 25, Keene, N.H.) presoaked with 1% polyethylenimine. The filters were then washed three times with 3 ml of ice-cold […] Tris buffer and counted in a gamma counter (Packard 5000) with 70% efficiency. To study the effect of […], the homogenates were prepared in a sodium-free 50 mM Tris-HCl/5 mM KCl buffer.

Series [6] addresses T4, SERT. Briefly: In vivo competitive binding: drug pretreatment before [125I]IDAM. Conditions: 2 mg/kg i.v. 5 min prior to tracer; 60 min after tracer. The procedure:
Experiments were performed using groups of 3-4 animals per study. […] The reduction of regional specific binding in the drug-pretreated rats was compared to the control animals with saline pretreatment.

The target in series [7] is T4, SERT. Set-up: The frontal cortex of rat brain were dissected and homogenized in 30 volumes of buffer; from tissue; host or cells: rat frontal cortex membrane homogenates (male Sprague-Dawley rats, control and PCA-lesioned). Conditions: Kung et al. 1992, cited from earlier work.
Series [8] in a line: Partition coefficient octanol/buffer. It is filed as physicochemical. Conditions: 1-octanol/pH 7 buffer.
The mark [9] stands for this setting: [125I]IPT ligand, LLC-PK1 membranes, read-out: Inhibition constant (Ki) SERT.
[10] abbreviates: [125I]IPT ligand, LLC-PK1 membranes, read-out: Inhibition constant (Ki) DAT.
[11] abbreviates: [125I]IPT ligand, LLC-PK1 membranes, read-out: Inhibition constant (Ki) NET.
Setting [12] is: 0.2 nM [125I]IDAM, rat frontal cortical homogenate, read-out: Ki for inhibition of [125I]IDAM binding.

Where two headings read alike, the source gives them in different places.

T1 sequence (P31652 whole entry): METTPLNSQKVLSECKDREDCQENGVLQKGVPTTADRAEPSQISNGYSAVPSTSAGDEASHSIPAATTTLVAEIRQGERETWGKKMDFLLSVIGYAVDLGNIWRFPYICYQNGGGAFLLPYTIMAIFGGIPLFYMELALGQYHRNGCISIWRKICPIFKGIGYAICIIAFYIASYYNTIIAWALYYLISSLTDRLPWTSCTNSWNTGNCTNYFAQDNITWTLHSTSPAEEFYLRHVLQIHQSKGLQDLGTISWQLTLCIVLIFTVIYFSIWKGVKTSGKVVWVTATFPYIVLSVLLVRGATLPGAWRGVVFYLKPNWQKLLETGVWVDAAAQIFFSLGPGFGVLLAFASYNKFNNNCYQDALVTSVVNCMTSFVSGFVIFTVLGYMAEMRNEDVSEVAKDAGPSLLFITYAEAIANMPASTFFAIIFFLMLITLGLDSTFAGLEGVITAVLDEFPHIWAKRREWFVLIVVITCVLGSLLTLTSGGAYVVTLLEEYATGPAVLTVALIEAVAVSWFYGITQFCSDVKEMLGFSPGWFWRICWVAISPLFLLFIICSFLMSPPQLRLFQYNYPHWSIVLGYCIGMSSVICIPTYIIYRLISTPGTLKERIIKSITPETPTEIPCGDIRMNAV
T4 sequence (P31652 whole entry): as above

With `Cc1ccccc1Nc1ccc(I)cc1CN(C)C` [K99037], the inhibitory constant (Ki) in series [1] (setting [9]) was determined as 27.3 ± 6.9 nM.
Take `CN(C)Cc1ccccc1Sc1ccc(Br)cc1N` [K99026]: the figures for the Ki in series [1] (setting [9]) and in series [2] were around 0.022 nM and 214 ± 68 nM, respectively.
As for `CC(=O)OCc1cc(Br)ccc1Sc1ccccc1CN(C)C` [K68], the Ki in series [3] (setting [10]) came to 20.4 ± 1.55 nM; in series [1] (setting [9]), 2.42 ± 0.06 nM; in series [2] (setting [11]), 420 ± 62.5 nM.
For `CN(C)Cc1ccccc1Oc1ccc([125I])cc1CO` [[^125I]ODAM, 5-[123-Iodo or 125-iodo]-2-(2-dimethylaminomethylphenoxy)-benzyl alcohol], in series [4] (2 min), the “% dose/organ BLOOD” value is 3.009 ± 0.212 % dose/organ, the “% dose/organ BRAIN” value came out at 2.033 ± 0.087 % dose/organ, the “% dose/organ THYROID” value is listed as 0.080 ± 0.019 % dose/organ and the “Regional brain distribution (ratio/CB) CEREBELLUM” value was 1.000. Besides, in series [4] (2 min), the “Regional brain distribution (ratio/CB) CORTEX” value is recorded as 1.436, the “Regional brain distribution (ratio/CB) HIPPOCAMPUS” value amounted to 0.983, the “Regional brain distribution (ratio/CB) HYPOTHALAMUS” value is 1.221 and the “Regional brain distribution (ratio/CB) STRIATUM” value came out at 0.906. Also, in series [4] (30 min), the “% dose/organ BLOOD” value worked out at 3.517 ± 0.504 % dose/organ, the “% dose/organ BRAIN” value came to 1.489 ± 0.146 % dose/organ, the “% dose/organ THYROID” value was 0.039 ± 0.006 % dose/organ and the “Regional brain distribution (ratio/CB) CEREBELLUM” value is 1.000. In series [4] (30 min), the “Regional brain distribution (ratio/CB) CORTEX” value was determined as 1.771, the “Regional brain distribution (ratio/CB) HIPPOCAMPUS” value is 1.563, the “Regional brain distribution (ratio/CB) HYPOTHALAMUS” value was found to be 1.860 and the “Regional brain distribution (ratio/CB) STRIATUM” value amounted to 1.590. Also, in series [4] (60 min), the “% dose/organ BLOOD” value stood at 3.296 ± 0.373 % dose/organ, the “% dose/organ BRAIN” value amounted to 0.785 ± 0.231 % dose/organ, the “% dose/organ THYROID” value was determined as 0.028 ± 0.005 % dose/organ and the “Regional brain distribution (ratio/CB) CEREBELLUM” value was determined as 1.000. Moreover, in series [4] (60 min), the “Regional brain distribution (ratio/CB) CORTEX” value is recorded as 1.690, the “Regional brain distribution (ratio/CB) HIPPOCAMPUS” value came out at 1.791, the “Regional brain distribution (ratio/CB) HYPOTHALAMUS” value stood at 1.858 and the “Regional brain distribution (ratio/CB) STRIATUM” value is 1.605. In series [4] (120 min), the “% dose/organ BLOOD” value is reported as 1.868 ± 0.186 % dose/organ, the “% dose/organ BRAIN” value was found to be 0.267 ± 0.066 % dose/organ, the “% dose/organ THYROID” value turned out to be 0.034 ± 0.006 % dose/organ and the “Regional brain distribution (ratio/CB) CEREBELLUM” value was 1.000. Also, in series [4] (120 min), the “Regional brain distribution (ratio/CB) CORTEX” value was determined as 1.672, the “Regional brain distribution (ratio/CB) HIPPOCAMPUS” value turned out to be 1.846, the “Regional brain distribution (ratio/CB) HYPOTHALAMUS” value is listed as 1.630 and the “Regional brain distribution (ratio/CB) STRIATUM” value is 1.617. For the same molecule, in series [4] (240 min), the “% dose/organ BLOOD” value is recorded as 0.976 ± 0.073 % dose/organ, the “% dose/organ BRAIN” value amounted to 0.065 ± 0.017 % dose/organ, the “% dose/organ THYROID” value was determined as 0.041 ± 0.038 % dose/organ and the “Regional brain distribution (ratio/CB) CEREBELLUM” value was 1.000. Besides, in series [4] (240 min), the “Regional brain distribution (ratio/CB) CORTEX” value turned out to be 1.322, the “Regional brain distribution (ratio/CB) HIPPOCAMPUS” value was found to be 1.648, the “Regional brain distribution (ratio/CB) HYPOTHALAMUS” value came to 1.343 and the “Regional brain distribution (ratio/CB) STRIATUM” value was 1.539.
As for `CN(C)Cc1ccccc1Sc1ccc(Br)cc1CO` [brominated derivative, 5-bromo-2-[[2-2[(dimethylamino)methyl]phenyl]thio]benzyl alcohol], the values for the Ki in series [3] (setting [10]), in series [1] (setting [9]) and in series [2] (setting [11]) were above 10000 nM, below 0.1 nM and 35.4 nM, respectively.
For `CN(C)Cc1cc(N)ccc1Cc1ccccc1` [K99034], the Ki in series [1] (setting [9]) turned out to be 35 ± 2.5 nM.
As to `CN(C)Cc1ccccc1Sc1ccc(I)cc1N` [K99028], the Ki in series [1] was around 0.013 nM; in series [2] (setting [11]), 699 ± 80 nM.
For the molecule `CN(C)Cc1ccccc1Oc1ccc(I)cc1` [K99039], the Ki in series [1] (setting [9]) is below 0.01 nM.
On to `CNCc1ccccc1Sc1ccc(I)cc1CO` [K99032], for which the Ki in series [1] (setting [9]) is below 0.01 nM.
As to `CN(C)Cc1ccccc1Sc1ccc(Br)cc1[N+](=O)[O-]` [K110], the Ki is 14700 ± 2200 nM in series [3] (setting [10]) and 1.9 nM in series [1] (setting [9]).
In turn, `COC(=O)C(c1ccccc1)C1CCCCN1` (stereo not shown) [methylphenidate] registered a Ki at SERT [5] above 1000 nM. Further, the “Ki for inhibition of [125I]IDAM binding” value on SERT [5] (0.2 nM [125I]IDAM, rat frontal cortical homogenate) is listed as “much less potent”. Also, the “effect of pretreatment on specific binding of [125I]IDAM in rat brain regions” value (“effect of pretreatment” below) on SERT [6] is given as “no effect”.
In the case of `CCN1CCC[C@H]1CNC(=O)c1c(O)c(Cl)cc(Cl)c1OC` [Raclopride, raclopride], the inhibitory constant (Ki) on SERT [5] (setting [12]) worked out at 669 nM. On SERT [6], the “effect of pretreatment” value is given as “no effect”.
Take `CN(C)Cc1ccccc1Sc1ccccc1N` [K109]: the Ki was 1700 ± 600 nM in series [3] (setting [10]) and 0.038 ± 0.01 nM in series [1] (setting [9]).
As to `Cc1ccccc1Nc1ccc(N)cc1CN(C)C` [K99036], the Ki in series [1] (setting [9]) amounted to 139 ± 15 nM.
On to `CCOCc1cc(I)ccc1Sc1ccccc1CN(C)C` [K119], for which the results for the Ki in series [3] (setting [10]) and in series [1] (setting [9]) were 11100 ± 1100 nM and 0.234 nM, respectively.
For the molecule `CN(C)Cc1ccccc1Sc1ccc(Br)cc1NO` [K99025], the figures for the Ki in series [1] (setting [9]) and in series [2] (setting [11]) were around 0.075 nM and 165 ± 9 nM, respectively.
In the case of `CCCOCc1cc(I)ccc1Sc1ccccc1CN(C)C` [K120], the figures for the Ki in series [3] (setting [10]), in series [1] (setting [9]) and in series [2] (setting [11]) were 9300 ± 200 nM, 0.33 ± 0.06 nM and 382 ± 46 nM, respectively.
On to `CN(C)Cc1ccccc1Oc1ccc(I)cc1CO` [ODAM, 5-Iodo-2-(2-dimethylaminomethylphenoxy)-benzyl alcohol], for which the Ki in series [3] (setting [10]) came to 3900 ± 700 nM; in series [1] (setting [9]), 0.12 nM; on SERT [5] (setting [12]), 2.88 ± 0.88 nM. Further, the “% dose/organ BRAIN” value turned out to be 2.03 % dose/organ in series [4] (2 min); 1.49 % dose/organ in series [4] (30 min); 0.79 % dose/organ in series [4] (60 min); 0.27 % dose/organ in series [4] (120 min); 0.07 % dose/organ in series [4] (240 min). The “Regional brain distribution (ratio/CB) HYPOTHALAMUS” value was determined as 1.22 in series [4] (2 min); 1.86 in series [4] (30 min); 1.86 in series [4] (60 min); 1.63 in series [4] (120 min); 1.34 in series [4] (240 min).
In the case of `CNCCC(Oc1ccc(I)cc1C)c1ccccc1` (stereo not shown) [4-I-tomoxetine], the Kd at SERT [7] is 0.04 nM. In addition, the nonspecific binding at SERT [7] (at Kd value) is recorded as above 25%.
In series [1], `CN(C)Cc1ccccc1Sc1ccc(Cl)cc1CO` [K99033] gave a Ki below 0.01 nM.
Consider `COCc1cc(I)ccc1Sc1ccccc1CN(C)C` [K104], for which the Ki worked out at 11000 ± 200 nM in series [3], 0.02 nM in series [1] and 155 ± 18.7 nM in series [2].
As to `CN(C)Cc1ccccc1Sc1ccc(I)cc1CO` [IDAM, 5-iodo-2-[[2-2[(dimethylamino)methyl]phenyl]thio]benzyl alcohol], the Ki in series [3] (setting [10]) was above 10000 nM; in series [1], below 0.1 nM; at SERT [5] it was 0.08 nM. Also, the “selectivity for SERT” value in series [1] (SERT versus DAT and NET) was “more than 1,000 fold”. Besides, the “effect of pretreatment” value at SERT [6] was “dramatically reduced”. In addition, in series [8], the partition coefficient came to 473.
For `CN(C)Cc1ccccc1Sc1ccc(Br)cn1` [K102], in series [1] (setting [9]), the Ki was above 1000 nM.
